According to patent US20140243415A1, “COMPOUNDS INHIBITING GALECTIN-1 EXPRESSION, CANCER CELL PROLIFERATION, INVASION, AND TUMORIGENESIS” (ONCOETHIX SA, priority 2011, published 2014):

Tests used:
[1] = test system: panel of human cancer cell lines; test: MTT cell cytotoxicity assay, cell line panel; type: cell-based; settings: Homo sapiens; remaining cell lines (other than SQ20B, OVCAR3, A2780-1A9)
Experimental: Cell survival was determined using the MTT assay (3-[4,5-dimethylthiazol-2-yl]-2,5-diphenyltetrazolium bromide; Sigma, Saint-Quentin Fallavier, France). The conversion of yellow water-soluble tetrazolium MTT into purple insoluble formazan is catalyzed by mitochondrial dehydrogenases and used to estimate the number of viable cells. In brief, cells were seeded in 96-well tissue culture plates at a density of 2×10^3 cells/well. After 72 h drug exposure and 48 h wash-out, cells were incubated with 0.4 mg/ml MTT for 4 hours at 37° C. After incubation, the supernatant was discarded, insoluble formazan precipitates were dissolved in 0.1 ml of DMSO and the absorbance was measured at 560 nm by use of a microplate reader (Thermo, France). […] IC50's were determined as the halves of maximal inhibitory drug concentration for each cell line.
The antiproliferative effects of OTX-008 and anginex were assessed using MTT assay in a panel of human cancer cell lines of human origins expressing various levels of Lgals-1 mRNA and galectin-1 protein expressions (Supplementary Table 1). […] No correlation between mRNA expressions of galectin-2, galectin-3, and galectin-8 as well as semaphorin-3A, semaphorin-3B, neuropilin-1, VEGFR1-3, VEGFA-D, and PDGFRa&P3 and sensitivity to OTX-008 were detected in the panel.

[2] = test system: cultured fibroblasts; test: Antiproliferative effect in fibroblasts; type: cell-based
[3] = biological target: T1, galectin-1 (Homo sapiens, UniProt P09382); test: Immunofluorescence of galectin-1 in SQ20B cells; type: cell-based
T1 construct: Western Blot of galectin-1 on SQ20B cells treated with 3 μM OTX-008 for 24 h, 48 h and 72 h; endogenous in cells; host or cells: SQ20B (ATCC)
T1 sequence (P09382 whole entry): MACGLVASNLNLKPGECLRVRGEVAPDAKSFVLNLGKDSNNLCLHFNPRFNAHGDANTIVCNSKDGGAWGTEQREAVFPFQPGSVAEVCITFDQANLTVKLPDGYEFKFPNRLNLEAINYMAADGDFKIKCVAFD
Experimental: FIG. 3. Effects of OTX-008 on galectin-1 expression and localization. A—Western Blot of galectin-1 on SQ20B cells treated with 3 μM OTX-008 for 24 h, 48 h and 72 h. B and C—Immunofluorescence of galectin-1 on SQ20B cells treated with 3 μM OTX-008 for 24 and 48 h. B—OTX-008 treatment decreases galectin-1 immunostaining in SQ20B cells. C—Galectin-1 translocates into the nucleus after OTX-008 exposure. D—Western Blot of p-AKTser473, AKT, p-S6, p-ERK1/2, ERK and p-PKCα in SQ20B cells treated with 3 μM OTX-008 for 10 min, 1 h, 2 h, 5 h and 24 h.
The cells were grown on cover slips at 37° C. overnight. The growth media was then removed; the cells were washed with PBS and fixed in 4% of paraformaldhyde for 15 min and permeabilized with PBS/tritonX100 (1:500) then washed again with PBS. Incubation with primary antibodies was performed at 4° C. overnight (galectin-1, 1:100; Abcam, Cambridge, Mass., USA), followed by the incubation with the secondary antibodies (anti-mouse, 1:100; Cell Signaling, Saint Quentin Yvelines, France) for 1 h at room temperature in the dark. The nuclei were stained with Dapi 1:10000 (Santa Cruz Biotechnology, Santa Cruz, Calif., USA). The images were captured and analyzed with a Zeiss observer Z1 microscope. Images quantification was performed using Histolab Software (Microvision, France) subtracting the background. Magnification ×20 and ×40.

[4] = test system: SQ20B xenografts; test: SQ20B xenograft model; type: in vivo
Experimental: FIG. 6. […] A—The antitumor effects of OTX-008 on A2780-1A9 xenograft were compared to that of active doses of cisplatin and paclitaxel—solid line represents days of treatment. B—Immunohistochemistry of galectin-1, Ki67 (MIB-1) and CD31 on A2780-1A9 xenograft. C—Tumor growth and secondary tumor formation of SQ20B xenografts untreated and treated with 10 mg/kg/day OTX-008 and SQ-shGAL1 xenografts. Tumor volume was determined as 3.14(width2)/length—solid line represents days of treatment. D—Immunohistochemistry of galectin-1, MIB1, VEGFR2 and CD31 on SQ20B xenografts
The immunohistochemical procedure was performed on OCT-embedded subcutaneous tumor stained with H&E, MIB1 ( 1/400, Dako, Glostrup, Denmark), CD31 ( 1/200, Dako), VEGFR2 ( 1/125, Cell Signaling, Saint Quentin Yvelines, France) or galectin-1 (1:20, Abcam, Cambridge, Mass., USA) using an automated immunohistochemical stainer according to the manufacturer's guidelines (streptavidin-peroxidase protocol; Benchmark, Ventana, Tuscon, Ariz., USA). The images were captured and analyzed with a Zeiss observer Z1 microscope. Images quantification was performed using Histolab Software (Microvision, France) subtracting the background. Magnification ×20 and ×40.
5.10^6 SQ20B or SQ20B-shGal1 cancer cells were injected s.c. into the right lateral flank of female nu/nu athymic mice. On day 5, mice were randomized; one group of SQ20B-mice was treated every other day with 10 mg/kg OTX-008 i.p. Tumor size was measured twice weekly with caliper and tumor volume was calculated as 3.14(width^2)/length. At the end of the study, mice were sacrificed, tumors were weighed and stored in OCT for molecular biology and immunohistochemical analysis. Secondary tumors were analyzed on liver, lung, intestine and skin in all mice. Mouse experiments complied with guidelines for Animal Housing and Experiment Board of the French authorities.

[5] = 10 mg/kg OTX-008 i.p. every other day

CN(C)CCNC(=O)COc1c2cccc1Cc1cccc(c1OCC(=O)NCCN(C)C)Cc1cccc(c1OCC(=O)NCCN(C)C)Cc1cccc(c1OCC(=O)NCCN(C)C)C2 [OTX-008]
GI50 [1]: > 9 µM | antiproliferative effect [2]: no antiproliferative effect | galectin-1 localization ([3]; 3 μM OTX-008): translocates from the cytoplasm to the nucleus | galectin-1 expression in the cytoplasm (immunofluorescence) ([3]; 3 μM OTX-008, 24 and 48 h): decrease galectin-1 expression | mice developing subcutaneous metastasis ([4]; 10 mg/kg OTX-008, control group >80%): 14% | toxicity of the dose [4, 5]: non-toxic dose | tumor growth [4, 5]: inhibited the growth of SQ20B xenografts | cell proliferation (Ki67) ([4]; SQ20B xenograft): significant decrease | galectin-1 expression in tumors ([4]; SQ20B xenograft): significant decrease | secondary tumor development ([4]; at mouse autopsies): significantly inhibited secondary tumor development | number and diameter of micro-vessels ([4]; vs control): significantly reduced
